Some results are limits rather than exact numbers.

For 1 molecule, IC50 results are on record in PMC6407917, “Identification of GSK3186899/DDD853651 as a Preclinical Development Candidate for the Treatment of Visceral Leishmaniasis” (Journal of Medicinal Chemistry, 2018).

Targets include BUB1 (Homo sapiens, UniProt O43683); CDK5 (Homo sapiens, UniProt Q00535); CDK9 (Homo sapiens, UniProt P50750); CDKL5 (Homo sapiens, UniProt O76039); CSNK2A2 (Homo sapiens, UniProt P19784); EIF2AK4 (Homo sapiens, UniProt Q9P2K8); IKBKG (Homo sapiens, UniProt Q9Y6K9); JAK3 (Homo sapiens, UniProt P52333); MAP3K11 (Homo sapiens, UniProt Q16584); MAPKAPK3 (Homo sapiens, UniProt Q16644); NEK6 (Homo sapiens, UniProt Q9HC98); NEK9 (Homo sapiens, UniProt Q8TD19); PKMYT1 (Homo sapiens, UniProt Q99640); PRKAB1 (Homo sapiens, UniProt Q9Y478); RPS6KA2 (Homo sapiens, UniProt Q15349); RPS6KA4 (Homo sapiens, UniProt O75676); SGK3 (Homo sapiens, UniProt Q96BR1); STK17B (Homo sapiens, UniProt O94768); STK3 (Homo sapiens, UniProt Q13188); TEK (Homo sapiens, UniProt Q02763); TNK2 (Homo sapiens, UniProt Q07912).

Experiment in all cases: biochemical
Holding throughout (set-up): species or system HEK293/K-562/placenta mixed human extract; Kinobeads chemoproteomic competition binding, quantified by TMT LC-MS/MS, dose response up to 20 uM

Chain of RPS6KA4 (O75676 whole entry): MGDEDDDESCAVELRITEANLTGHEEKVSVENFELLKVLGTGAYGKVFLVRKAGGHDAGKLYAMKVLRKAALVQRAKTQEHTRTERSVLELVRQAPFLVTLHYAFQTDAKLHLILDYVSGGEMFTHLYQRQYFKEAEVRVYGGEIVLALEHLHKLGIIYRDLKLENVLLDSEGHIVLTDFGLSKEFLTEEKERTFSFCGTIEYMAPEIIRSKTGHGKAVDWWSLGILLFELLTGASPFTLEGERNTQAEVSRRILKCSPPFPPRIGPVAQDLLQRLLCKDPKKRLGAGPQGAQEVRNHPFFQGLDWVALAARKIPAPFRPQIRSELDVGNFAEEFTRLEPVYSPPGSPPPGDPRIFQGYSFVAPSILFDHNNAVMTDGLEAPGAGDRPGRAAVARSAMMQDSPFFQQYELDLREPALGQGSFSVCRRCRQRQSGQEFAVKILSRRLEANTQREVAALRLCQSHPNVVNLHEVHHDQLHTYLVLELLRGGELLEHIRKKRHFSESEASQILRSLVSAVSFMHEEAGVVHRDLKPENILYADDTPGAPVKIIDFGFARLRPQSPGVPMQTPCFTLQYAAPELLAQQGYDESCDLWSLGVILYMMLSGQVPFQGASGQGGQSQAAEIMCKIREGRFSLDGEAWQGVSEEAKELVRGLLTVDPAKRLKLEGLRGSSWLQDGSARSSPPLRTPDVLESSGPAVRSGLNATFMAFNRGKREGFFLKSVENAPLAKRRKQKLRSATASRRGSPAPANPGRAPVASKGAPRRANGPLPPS
Chain of NEK9 (Q8TD19 whole entry): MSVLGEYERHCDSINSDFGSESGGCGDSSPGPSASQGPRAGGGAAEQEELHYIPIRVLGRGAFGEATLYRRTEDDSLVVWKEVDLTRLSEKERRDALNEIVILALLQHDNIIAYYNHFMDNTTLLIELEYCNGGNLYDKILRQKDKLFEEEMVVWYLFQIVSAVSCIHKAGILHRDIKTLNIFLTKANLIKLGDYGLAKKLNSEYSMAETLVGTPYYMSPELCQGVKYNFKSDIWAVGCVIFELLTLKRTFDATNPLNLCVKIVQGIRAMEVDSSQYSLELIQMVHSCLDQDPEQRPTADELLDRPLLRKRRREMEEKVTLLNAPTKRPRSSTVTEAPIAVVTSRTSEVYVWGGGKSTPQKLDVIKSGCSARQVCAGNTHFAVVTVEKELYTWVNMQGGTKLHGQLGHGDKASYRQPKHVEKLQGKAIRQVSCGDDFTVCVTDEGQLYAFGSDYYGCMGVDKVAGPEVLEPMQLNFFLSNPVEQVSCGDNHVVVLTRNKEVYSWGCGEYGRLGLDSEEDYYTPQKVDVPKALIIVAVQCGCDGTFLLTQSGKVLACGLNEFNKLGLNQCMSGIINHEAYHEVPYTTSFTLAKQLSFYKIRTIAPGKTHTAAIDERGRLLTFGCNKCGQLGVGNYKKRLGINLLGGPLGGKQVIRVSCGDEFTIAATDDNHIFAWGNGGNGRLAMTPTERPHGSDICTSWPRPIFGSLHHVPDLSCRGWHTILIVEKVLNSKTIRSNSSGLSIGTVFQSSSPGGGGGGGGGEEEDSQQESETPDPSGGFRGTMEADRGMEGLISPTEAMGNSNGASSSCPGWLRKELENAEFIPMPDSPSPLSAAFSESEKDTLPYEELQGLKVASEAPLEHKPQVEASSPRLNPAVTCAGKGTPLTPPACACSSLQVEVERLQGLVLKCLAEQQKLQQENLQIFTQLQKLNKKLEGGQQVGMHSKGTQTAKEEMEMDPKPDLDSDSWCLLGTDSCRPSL
Chain of CDKL5 (O76039 whole entry): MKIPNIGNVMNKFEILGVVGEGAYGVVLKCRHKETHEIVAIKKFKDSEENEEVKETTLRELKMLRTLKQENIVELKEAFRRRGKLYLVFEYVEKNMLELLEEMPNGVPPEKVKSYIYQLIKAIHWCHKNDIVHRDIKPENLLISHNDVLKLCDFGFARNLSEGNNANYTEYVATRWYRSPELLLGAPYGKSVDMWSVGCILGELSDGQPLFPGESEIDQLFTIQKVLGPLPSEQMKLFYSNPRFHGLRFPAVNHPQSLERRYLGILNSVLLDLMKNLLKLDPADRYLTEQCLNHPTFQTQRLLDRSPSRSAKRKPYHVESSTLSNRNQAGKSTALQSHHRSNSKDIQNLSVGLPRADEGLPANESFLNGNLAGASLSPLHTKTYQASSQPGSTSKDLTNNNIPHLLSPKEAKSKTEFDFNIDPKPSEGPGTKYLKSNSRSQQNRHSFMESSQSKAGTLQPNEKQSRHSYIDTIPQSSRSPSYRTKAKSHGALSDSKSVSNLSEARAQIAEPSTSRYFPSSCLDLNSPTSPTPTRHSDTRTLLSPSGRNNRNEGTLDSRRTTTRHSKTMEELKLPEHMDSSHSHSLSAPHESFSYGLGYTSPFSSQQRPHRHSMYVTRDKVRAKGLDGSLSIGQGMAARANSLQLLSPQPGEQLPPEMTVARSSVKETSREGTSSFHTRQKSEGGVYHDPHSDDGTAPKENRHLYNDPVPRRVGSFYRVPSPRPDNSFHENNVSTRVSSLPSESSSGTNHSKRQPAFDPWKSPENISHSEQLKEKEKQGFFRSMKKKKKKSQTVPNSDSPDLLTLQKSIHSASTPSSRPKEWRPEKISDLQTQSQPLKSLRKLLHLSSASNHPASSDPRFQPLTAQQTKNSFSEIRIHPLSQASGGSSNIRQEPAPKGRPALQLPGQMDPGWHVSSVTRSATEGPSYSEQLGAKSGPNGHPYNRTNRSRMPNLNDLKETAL
Chain of IKBKG (Q9Y6K9 whole entry): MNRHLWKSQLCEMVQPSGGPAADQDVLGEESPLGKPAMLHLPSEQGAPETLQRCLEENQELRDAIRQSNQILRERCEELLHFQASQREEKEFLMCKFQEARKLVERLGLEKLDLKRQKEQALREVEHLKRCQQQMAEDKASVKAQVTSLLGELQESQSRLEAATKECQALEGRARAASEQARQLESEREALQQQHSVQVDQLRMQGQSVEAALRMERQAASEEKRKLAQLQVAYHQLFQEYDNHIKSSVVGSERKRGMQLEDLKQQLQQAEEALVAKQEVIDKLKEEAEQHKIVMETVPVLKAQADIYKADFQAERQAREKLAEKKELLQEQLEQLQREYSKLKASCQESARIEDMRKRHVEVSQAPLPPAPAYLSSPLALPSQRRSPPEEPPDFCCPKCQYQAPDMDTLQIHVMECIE
Chain of TEK (Q02763 whole entry): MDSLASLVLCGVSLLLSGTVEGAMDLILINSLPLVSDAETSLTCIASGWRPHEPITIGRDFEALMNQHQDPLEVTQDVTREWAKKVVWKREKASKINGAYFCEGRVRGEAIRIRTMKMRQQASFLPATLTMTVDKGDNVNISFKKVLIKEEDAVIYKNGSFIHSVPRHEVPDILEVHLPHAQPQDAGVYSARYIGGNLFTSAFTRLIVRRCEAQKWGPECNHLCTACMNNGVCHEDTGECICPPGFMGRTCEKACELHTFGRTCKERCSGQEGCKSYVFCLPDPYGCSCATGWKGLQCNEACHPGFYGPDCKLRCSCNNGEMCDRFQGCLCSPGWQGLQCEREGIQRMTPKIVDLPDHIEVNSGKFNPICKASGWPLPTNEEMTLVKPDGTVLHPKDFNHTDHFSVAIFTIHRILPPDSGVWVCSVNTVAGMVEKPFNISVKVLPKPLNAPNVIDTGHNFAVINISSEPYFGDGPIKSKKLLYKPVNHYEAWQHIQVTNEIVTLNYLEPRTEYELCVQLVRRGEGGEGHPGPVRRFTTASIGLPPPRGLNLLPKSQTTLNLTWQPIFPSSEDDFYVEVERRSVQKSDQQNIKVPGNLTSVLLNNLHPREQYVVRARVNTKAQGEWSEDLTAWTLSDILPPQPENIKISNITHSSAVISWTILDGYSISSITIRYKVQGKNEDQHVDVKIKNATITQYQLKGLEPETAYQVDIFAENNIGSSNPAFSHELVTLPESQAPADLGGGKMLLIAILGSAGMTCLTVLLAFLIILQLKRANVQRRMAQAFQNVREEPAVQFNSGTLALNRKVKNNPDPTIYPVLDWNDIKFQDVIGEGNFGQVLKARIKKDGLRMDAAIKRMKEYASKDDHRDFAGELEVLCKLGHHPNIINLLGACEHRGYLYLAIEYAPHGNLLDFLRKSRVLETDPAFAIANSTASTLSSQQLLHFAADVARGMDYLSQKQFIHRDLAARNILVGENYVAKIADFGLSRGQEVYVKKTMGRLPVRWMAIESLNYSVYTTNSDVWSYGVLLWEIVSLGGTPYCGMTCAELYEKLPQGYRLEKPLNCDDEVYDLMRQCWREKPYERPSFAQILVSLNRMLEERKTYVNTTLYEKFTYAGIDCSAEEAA
Chain of STK3 (Q13188 whole entry): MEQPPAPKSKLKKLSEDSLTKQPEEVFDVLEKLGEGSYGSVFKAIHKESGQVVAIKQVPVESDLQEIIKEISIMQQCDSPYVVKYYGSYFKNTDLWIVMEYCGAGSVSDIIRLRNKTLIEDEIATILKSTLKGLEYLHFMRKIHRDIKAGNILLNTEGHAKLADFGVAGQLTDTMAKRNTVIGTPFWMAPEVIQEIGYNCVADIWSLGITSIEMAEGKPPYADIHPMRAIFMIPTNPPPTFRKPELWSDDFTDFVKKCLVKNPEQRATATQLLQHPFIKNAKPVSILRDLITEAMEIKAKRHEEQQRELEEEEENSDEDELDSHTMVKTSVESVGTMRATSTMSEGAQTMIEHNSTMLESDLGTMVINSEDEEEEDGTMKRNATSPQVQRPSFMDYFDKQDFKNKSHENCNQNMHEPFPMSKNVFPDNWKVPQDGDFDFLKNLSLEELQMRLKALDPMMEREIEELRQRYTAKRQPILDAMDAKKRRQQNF
Chain of NEK6 (Q9HC98 whole entry): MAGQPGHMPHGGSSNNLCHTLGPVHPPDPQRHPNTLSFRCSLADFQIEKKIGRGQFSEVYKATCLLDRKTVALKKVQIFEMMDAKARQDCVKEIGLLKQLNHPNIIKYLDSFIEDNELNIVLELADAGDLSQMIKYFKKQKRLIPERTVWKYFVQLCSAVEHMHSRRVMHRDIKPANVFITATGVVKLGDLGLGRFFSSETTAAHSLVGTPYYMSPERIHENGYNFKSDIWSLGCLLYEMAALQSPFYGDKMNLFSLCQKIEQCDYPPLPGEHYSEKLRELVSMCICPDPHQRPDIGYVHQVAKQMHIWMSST

`COc1ccccc1-c1n[nH]c2nc(N[C@H]3CC[C@H](NS(=O)(=O)CCC(F)(F)F)CC3)nc(OC)c12` [compound 31, 3,3,3-Trifluoro-N-(trans-4-((4-methoxy-3-(2-methoxyphenyl)-1H-pyrazolo[3,4-d]pyrimidin-6-yl)amino)cyclohexyl)propane-1-sulfonamide]: the IC50 (as a rule, the concentration at which inhibition is half-maximal) was at least 20 µM on BUB1; 1.2 µM on CDK5; 3.6 µM on CDK9; at least 20 µM on CDKL5; at least 20 µM on CSNK2A2; at least 20 µM on EIF2AK4. For the same molecule, the IC50 at IKBKG, at JAK3, at MAP3K11, at MAPKAPK3, at NEK6 and at NEK9 was at least 20 µM each time. Besides, the IC50 at PKMYT1, on PRKAB1, at RPS6KA2, on RPS6KA4, at SGK3 and at STK17B was at least 20 µM each time. Also, the IC50 at STK3, on TEK and on TNK2 was at least 20 µM each time.
